The subject of assay [1] is pPDF1.2-GUS-tNOS reporter gene. Kind of assay: β-glucuronidase activity in four-week-old pPDF1.2-GUS-tNOS Arabidopsis plants upon chemical treatment. The format is in vivo.
Assay [2] deals with pBg12-GUS-tNOS (β-1.3-glucanase PR-2 type gene promoter). Briefly: β-glucuronidase activity in pBg12-GUS-tNOS Arabidopsis plants upon chemical treatment. The format is in vivo.
For another assay, the system named is Botrvtis cinerea. The conditions noted are these: cited from earlier work.
A further assay relates to Alterniaria alternata. To be noted: cited from earlier work.
Assay [3] concerns plant defensin gene expression (PDF1.2). Kind of assay: Induction of plant defensins in Arabidopsis leaves upon chemical treatments (RNA gel blot, ELISA). The format is in vivo. On the technique in general: An ELISA detects its analyte on a solid surface through an enzyme-linked reagent.
The test system of assay [4] is pPDF1.2-GUS-tNOS transgene. Kind of assay: β-glucuronidase activity in seedlings of pPDF1.2-GUS-tNOS Arabidopsis lines germinated on jasmonic acid. The format is in vivo, Arabidopsis thaliana ecotype C24. To be noted: 10 μM jasmonic acid. An excerpt:
The β-glucuronidase activity was normalized to the total protein content in each sample, as determined by the method of Bradford (1976) using bovine serum albumin as a […].

Assay [5] deals with pPDF1.2-GUS-tNOS reporter gene. Briefly: β-glucuronidase activity in pPDF1.2-GUS-tNOS tobacco plants upon chemical treatment. The format is in vivo, tobacco (cv. Xanthi-nc). The conditions noted are these: 8-week-old tobacco, treated leaves 48 h after treatment; SA S mM, MeJA 50 μM, paraquat 25 μgM.
Another assay has as its system tobacco PR-1 gene. Briefly: RNA gel blot analysis of tobacco PR-1 gene activation. To be noted: tobacco plants treated in the same way; not shown. The format is in vivo.
In a further assay the test system is A. brassicicola. The format is cell-based, Alternaria brassicicola. To be noted: FIG. 3D.
The mark [6] stands for this setting: treated leaves, 48 hours, JA 500 μM, MeJA 50 μM, SA 5 mM, INA 1 mg/ml, BTH 300 μM, paraquat 25 μM, ethylene 25 ppm.
[7] abbreviates: treated leaves, 48 h, JA 500 μM, MeJA 50 μM, SA 5 mM, INA 1 mg/ml, BTH 300 μM, paraquat 25 μM, ethylene 25 ppm.
Setting [8] is: […], SA 5 mM, INA 1 mg/mL, paraquat 25 μM, rose bengal 20 mM, methyl jasmonate 45 μM in 0.1% ethanol, ethylene 20 ppm.

Consider `CSC(=O)c1cccc2nnsc12` [BTH, 1,2,3-benzothiadiazole-7-carbothioic acid S-methylester], for which the “induction of the pPDF1.2-GUS-tNOS reporter gene (β-glucuronidase activity)” value (“induction” for short) in assay [1] (setting [6]) is “without effect”. The “β-glucuronidase activity in pBg12-GUS-tNOS plants” value in [2] (setting [7]) was “markedly increased”. For the same compound, in the assay on Botrvtis cinerea, the “protection of tobacco plants against infection by Botrytis cinerea” value is “failed to protect”. In addition, the “protection of tobacco plants against infection by Alternaria alternata” value with Alterniaria alternata is recorded as “failed to protect”.
For the compound `O=C(O)c1cc(Cl)nc(Cl)c1` [INA, 2,6-dichloroisonicotinic acid], the “plant defensin gene expression (RNA blot analysis, ELISA)” value (“plant defensin gene expression” below) in assay [3] (setting [8]) was “no induction”. In addition, in assay [1] (setting [6]), the “induction” value is on record as “without effect”. For the same compound, in [2] (setting [7]), the “β-glucuronidase activity in pBg12-GUS-tNOS plants” value is given as “markedly increased”.
As for `C=C` [ethylene], in assay [3] (in vivo), the PDF1.2 accumulation entry is “no induced PDF1.2 accumulation” and the “plant defensin gene expression” value is on record as “significantly increased”. Besides, in [1] (in vivo), the “induction” value is recorded as “without effect”; the “β-glucuronidase activity, single and combined treatments (synergy)” value is “did not cause increased”. Moreover, in [2] (in vivo), the “β-glucuronidase activity in pBg12-GUS-tNOS plants” value is listed as “neither JA, MeJA, ethylene nor paraquat had any effect”.
For the compound `CC/C=C\C[C@H]1C(=O)CC[C@@H]1CC(=O)O` [jasmonic acid], the “increase of β-glucuronidase activity in jasmonate treated versus untreated seedlings” value in [4] (all six lines tested) fell in the range of 9 to 25 fold. For the same compound, the “β-glucuronidase activity, JA-treated” value is on record as 2895 pmoles 4-methylumbelliferone r in [4] (transgenic line 3, 10-day-old seedlings); 978 pmoles 4-methylumbelliferone r in assay [4] (transgenic line 4, 10-day-old seedlings); 2676 pmoles 4-methylumbelliferone r in assay [4] (transgenic line 5, 10-day-old seedlings); 2166 pmoles 4-methylumbelliferone r in assay [4] (transgenic line 6, 10-day-old seedlings); 203 pmoles 4-methylumbelliferone r in [4] (transgenic line 7, 10-day-old seedlings); 202 pmoles 4-methylumbelliferone r in [4] (transgenic line 19, 10-day-old seedlings). Moreover, the “induction” value in assay [1] (setting [6]) is on record as “induced”. Further, the “β-glucuronidase activity in pBg12-GUS-tNOS plants” value in [2] (setting [7]) was “neither JA, MeJA, ethylene nor paraquat had any effect”.
As to `CC/C=C\CC1C(=O)CCC1CC(=O)OC` (stereo not drawn) [methyl jasmonate], the “plant defensin gene expression” value in [3] (setting [8]) was “significantly increased”. In addition, the PDF1.2 accumulation entry in [3] (sterile plants grown on an agar medium, ethylene alone 25 ppm, results not shown) is recorded as “still induced PDF1.2 accumulation”. For the same compound, in assay [1] (methyl jasmonate 0.5 μM, ethylene 25 ppm, ethephon 333 μM, FIG. 19), the “β-glucuronidase activity, single and combined treatments (synergy)” value was “did not cause increased”. The “induction” value in [1] (setting [6]) is on record as “induced”. For the same compound, the “β-glucuronidase activity in pBg12-GUS-tNOS plants” value in assay [2] (setting [7]) is “neither JA, MeJA, ethylene nor paraquat had any effect”.
In the case of `C[n+]1ccc(-c2cc[n+](C)cc2)cc1` [paraquat], the “plant defensin gene expression” value in [3] (setting [8]) is “strongly induced”. For the same compound, the “induction” value in assay [1] (setting [6]) is on record as “induced”. The “β-glucuronidase activity in pBg12-GUS-tNOS plants” value in assay [2] (setting [7]) is reported as “neither JA, MeJA, ethylene nor paraquat had any effect”.
For the compound `O=C([O-])c1c(Cl)c(Cl)c(Cl)c(Cl)c1-c1c2cc(I)c(=O)c(I)c-2oc2c(I)c([O-])c(I)cc12.[Na+].[Na+]` [rose bengal], the “plant defensin gene expression” value in assay [3] (setting [8]) is on record as “strongly induced”.
Take `O=C(O)c1ccccc1O` [salicylic acid]: the “plant defensin gene expression” value in [3] (setting [8]) was “no induction”. Also, the “induction” value in [1] (setting [6]) was “without effect”. The “β-glucuronidase activity in pBg12-GUS-tNOS plants” value in [2] (setting [7]) is listed as “markedly increased”. Also, in [5], the “increase in β-glucuronidase activity” value is given as 2 fold. Further, the “activation of the tobacco PR-1 gene (RNA gel blot)” value with tobacco PR-1 gene is “induced only by salicylic acid”.
Turning to “Rs-AFP1: a known radish plant defensin (QKLCERPSGTWSGVCGNNNACKNQCINLEKARHGSCNYVFPAHKCICYFPC; UniProt P69241 30-80, looked up)”, in the assay with A. brassicicola, the “character of the growth inhibition (hyphal morphology)” value was “hyphal hyperbranching and tip swelling”.
